These results are taken from US20220235030A1, “SELECTIVE HISTAMINE H3 ANTAGONIST ACID ADDITION SALTS AND PROCESS FOR THE PREPARATION THEREOF” (RICHTER GEDEON NYRT., priority 2019, published 2022).

What all share (type): physicochemical
Data set [1] is described as follows: 10-day solid stress stability study, HPLC purity test. An excerpt: Increased stability to ambient humidity is beneficial for longer-term physical and chemical stability of the active ingredient. The relationship between the reduced hygroscopic nature and the increased chemical stability associated with it is shown in the most preferred citrate salts in comparison to the dihydrochloride salt.

A short description of data set [2]: Solubility in simulated gastric fluid. The note with it: simulated gastric fluid (SGF without pepsin, pH=1.3). An excerpt: The generally observed hygroscopic nature of the 1-[4-(4-{3-[(2R)-2-methyl-pyrrolidin-1-yl]-propoxy}-phenoxy)-piperidin-1-yl]-ethanone salts is inter alia related to the good solubility thereof.
The nature of data set [3]: Dynamic vapor sorption (DVS) analysis at 25° C., hygroscopicity and deliquescence. More on the design: Δm/ΔRH: unit not given beside the values. The note with it: for Critical Relative Humidity (CRH) / relative humidity above which high, continuous weight gain (deliquescence) is observed: DVS at 25° C.; for Critical Relative Humidity (CRH): RH1 of first sorption step with Δm/ΔRH≥0.5; for Δm/ΔRH / relative humidity above which high, continuous weight gain (deliquescence) is observed: sorption; for Δm/ΔRH / relative weight change: 25° C.; for relative weight change: 95% RH. The procedure:
Determination of the critical relative humidity is feasible by gravimetric method, e.g. with DVS, where relative humidity is changed in suitably selected steps and a sufficiently long time is used to the onset of quasi-equilibrium.
The deliquescence tendency of each salt is characterized by the critical relative humidity (CRH) value (Table 1), which was determined based on the sorption curves measured according to the measurement parameter settings below, with DVS analysis at 25° C. isotherm conditions, according to the following. […]
If the given sorption step is Δm/ΔRH≥0.5, then RH1 is considered to be the critical relative humidity (CRH) value indicating the end point of the physical stability of the substance. The value thus determined is a good match with the onset of a significant monotonic weight gain observed visually on the sorption curve. Above the critical relative humidity value, it is the process of deliquescence of the substance that determines the weight gain observed on the sorption curve.

The mark [4] stands for this setting: listed as monohydrochloride Form A.
Setting [5] is: listed as monohydrochloride Form B.

Where a name gives a salt, the structure may show the parent alone. Read-outs that look alike come from different tables or passages of the source.

Turning to `CC(=O)N1CCC(Oc2ccc(OCCCN3CCC[C@H]3C)cc2)CC1` [monocitrate, 1-[4-(4-{3-[(2R)-2-methyl-pyrrolidin-1-yl]-propoxy}-phenoxy)-piperidin-1-yl]-ethanone monocitrate salt Form A], the “chemical stability (in words)” value in data set [1] (10-day solid stress: heat, heat and humidity) was “stable”. Further, the “All contaminant (area %)” value in data set [1] (10 days, 40° C., 75% RH, open glass) was found to be 0.19% area %; in data set [1] (10 days, 50° C., 75% RH, open glass), 0.19% area %; in data set [1] (10 days, 50° C., sealed glass), 0.20% area %; in data set [1] (10 days, 75° C., sealed glass), 0.19% area %; in data set [1] (starting sample) it was 0.19% area %. In addition, the solubility entry in data set [2] is “greater than 44 mM”. Moreover, the “hygroscopicity (in words)” value in data set [3] is reported as “poorly hygroscopic”. The “Critical Relative Humidity (CRH)” value in data set [3] was “not deliquescent”. Moreover, the Δm/ΔRH in data set [3] (RH1 0%) was 0.0; in data set [3] (RH1 10%), 0.0; in data set [3] (RH1 20%), 0.2; in data set [3] (RH1 30%) it was 0.1; in data set [3] (RH1 40%), 0.0; in data set [3] (RH1 50%), 0.0. The Δm/ΔRH in data set [3] (RH1 60%), in data set [3] (RH1 70%) and in data set [3] (RH1 80%) was 0.0 each time. In addition, the “deliquescence (in words)” value in data set [3] (above 90% RH, DVS 25° C.) is given as “did not show deliquescence”; in data set [3] (under the conditions of the DVS analysis), “not deliquescent”; in data set [3] (under the conditions of the DVS analysis, listed as Monocitrate) it was “do not show deliquescence”. The “relative humidity at which monohydrate Form A converts to anhydrate Form B” value in data set [3] (during desorption) is “below 10 % RH”.
As to `CC(=O)N1CCC(Oc2ccc(OCCCN3CCC[C@H]3C)cc2)CC1` [oxalate, 1-[4-(4-{3-[(2R)-2-methyl-pyrrolidin-1-yl]-propoxy}-phenoxy)-piperidin-1-yl]-ethanone oxalate salt], in data set [3] (oxalate salt), the “Critical Relative Humidity (CRH)” value is reported as “not deliquescent”. In addition, the Δm/ΔRH in data set [3] (RH1 0%, oxalate salt) is given as 0.0; in data set [3] (RH1 10%, oxalate salt), 0.1; in data set [3] (RH1 20%, oxalate salt), 0.1; in data set [3] (RH1 30%, oxalate salt) it was 0.2; in data set [3] (RH1 40%, oxalate salt) it was 0.1; in data set [3] (RH1 50%, oxalate salt), 0.0. The Δm/ΔRH in data set [3] (RH1 60%, oxalate salt) is 0.0; in data set [3] (RH1 70%, oxalate salt) it was 0.0; in data set [3] (RH1 80%, oxalate salt) it was 0.1. In addition, the “deliquescence (in words)” value in data set [3] (above 90% RH, DVS 25° C., oxalate salt) is given as “does not even show deliquescence”; in data set [3] (under the conditions of the DVS analysis, oxalate salt) it was “not deliquescent”. Further, the “relative weight gain relative to the dried weight” value in data set [3] (sorption curve, 10-50% RH range, constant up to approx. 70% RH) is recorded as “about 4.7%”.
For the molecule `CC(=O)N1CCC(Oc2ccc(OCCCN3CCC[C@H]3C)cc2)CC1` [monoHCl Form A, 1-[4-(4-{3-[(2R)-2-methyl-pyrrolidin-1-yl]-propoxy}-phenoxy)-piperidin-1-yl]-ethanone monohydrochloride salt Form A], the “Critical Relative Humidity (CRH)” value in data set [3] came out at 40%. Moreover, the Δm/ΔRH is reported as 0.0 in data set [3] (RH1 0%); 0.0 in data set [3] (RH1 10%); 0.0 in data set [3] (RH1 20%); 0.3 in data set [3] (RH1 30%); 1.1 in data set [3] (RH1 40%); 0.5 in data set [3] (RH1 50%). Moreover, the results for the Δm/ΔRH in data set [3] (RH1 60%), in data set [3] (RH1 70%) and in data set [3] (RH1 80%) were 0.6, 1.1 and 2.6, respectively. In addition, the “hygroscopicity (in words)” value in data set [3] (setting [4]) is listed as “highly hygroscopic”. For the same molecule, in data set [3] (sorption curve), the relative weight change was 97%. Moreover, in data set [3] (sorption curve, up to 40% RH), the water bound entry was “about 3%”. Also, the “relative humidity above which high, continuous weight gain (deliquescence) is observed” value in data set [3] (setting [4]) was “above 40%”.
Take `CC(=O)N1CCC(Oc2ccc(OCCCN3CCC[C@H]3C)cc2)CC1` [diHBr, 1-[4-(4-{3-[(2R)-2-methyl-pyrrolidin-1-yl]-propoxy}-phenoxy)-piperidin-1-yl]-ethanone dihydrobromide salt]: the “Critical Relative Humidity (CRH)” value in data set [3] (dihydrobromide salt) is reported as 70%. The Δm/ΔRH came out at 0.0 in data set [3] (RH1 0%, dihydrobromide salt); 0.0 in data set [3] (RH1 10%, dihydrobromide salt); 0.0 in data set [3] (RH1 20%, dihydrobromide salt); 0.0 in data set [3] (RH1 30%, dihydrobromide salt); 0.1 in data set [3] (RH1 40%, dihydrobromide salt); 0.1 in data set [3] (RH1 50%, dihydrobromide salt). Besides, the Δm/ΔRH was 0.3 in data set [3] (RH1 60%, dihydrobromide salt); 3.1 in data set [3] (RH1 70%, dihydrobromide salt); 3.3 in data set [3] (RH1 80%, dihydrobromide salt). In addition, in data set [3] (sorption curve, dihydrobromide salt), the relative weight change was 90%. Also, the moisture absorbed result in data set [3] (sorption curve, up to 70% RH) was “about 6%”.
As to `CC(=O)N1CCC(Oc2ccc(OCCCN3CCC[C@H]3C)cc2)CC1` [sulfate, 1-[4-(4-{3-[(2R)-2-methyl-pyrrolidin-1-yl]-propoxy}-phenoxy)-piperidin-1-yl]-ethanone sulfate salt], the “Critical Relative Humidity (CRH)” value in data set [3] (sulfate salt) is on record as 80%. In addition, the Δm/ΔRH in data set [3] (RH1 0%, sulfate salt) was 0.4; in data set [3] (RH1 10%, sulfate salt) it was 0.0; in data set [3] (RH1 20%, sulfate salt), 0.0; in data set [3] (RH1 30%, sulfate salt), 0.0; in data set [3] (RH1 40%, sulfate salt), 0.0; in data set [3] (RH1 50%, sulfate salt) it was 0.0. Besides, the Δm/ΔRH came out at 0.0 in data set [3] (RH1 60%, sulfate salt); 0.1 in data set [3] (RH1 70%, sulfate salt); 1.6 in data set [3] (RH1 80%, sulfate salt). The relative weight change in data set [3] (sorption curve, sulfate salt) is reported as 53%. For the same molecule, in data set [3] (sorption curve, up to 80% RH, sulfate salt), the water bound entry is listed as “about 5%”.
Turning to `CC(=O)N1CCC(Oc2ccc(OCCCN3CCC[C@H]3C)cc2)CC1` [monoHCl Form B, 1-[4-(4-{3-[(2R)-2-methyl-pyrrolidin-1-yl]-propoxy}-phenoxy)-piperidin-1-yl]-ethanone monohydrochloride salt Form B], the “Critical Relative Humidity (CRH)” value in data set [3] was determined as 30%. In addition, the Δm/ΔRH in data set [3] (RH1 0%) worked out at 0.0; in data set [3] (RH1 10%), 0.0; in data set [3] (RH1 20%), 0.0; in data set [3] (RH1 30%) it was 0.6; in data set [3] (RH1 40%) it was 0.7; in data set [3] (RH1 50%), 0.4. In addition, the Δm/ΔRH in data set [3] (RH1 60%) was 0.6; in data set [3] (RH1 70%), 0.9; in data set [3] (RH1 80%), 1.5. Besides, in data set [3] (setting [5]), the “hygroscopicity (in words)” value was “highly hygroscopic”. In addition, the relative weight change in data set [3] (sorption curve) is on record as 61%. The molecule also displayed a water bound in data set [3] (sorption curve, up to 30% RH) of 0.3%. In data set [3] (setting [5]), the “relative humidity above which high, continuous weight gain (deliquescence) is observed” value is recorded as “above 30%”.
